For five compounds, IC50, solubility and difference in IC50 with vs without preincubation results are on record in patent US9725442B2, “Heterocyclic derivative having PGD2 receptor antagonist activity” (Shionogi & Co., Ltd., priority 2011, dated 2017).

A value given as a limit tells only on which side of the number the result lay.

Data set [1] addresses CYP2D6 (Homo sapiens (Human), UniProt P10635). Put plainly: CYP inhibition test, dextromethorphan O-demethylation. The format is in vitro ADME. As to conditions: pooled human hepatic microsome, 5 μmol/L dextromethorphan. The source says: Using commercially available pooled human hepatic microsome, and employing, as markers, 7-ethoxyresorufin O-deethylation (CYP1A2), tolbutamide methyl-hydroxylation (CYP2C9), mephenyloin 4′-hydroxylation (CYP2C19), dextromethorphan O-demethylation (CYP2D6), and terfenedine hydroxylation as typical substrate metabolism reactions of human main five CYP enzyme forms (CYP1A2, 2C9, 2C19, 2D6, 3A4), an inhibitory degree of each metabolite production amount by a compound of the present compound was assessed.
The reaction conditions were as follows: substrate, 0.5 μmol/L ethoxyresorufin (CYP1A2), 100 μmol/L tolbutamide (CYP2C9), 50 μmol/L S-mephenyloin (CYP2C19), 5 μmol/L dextromethorphan (CYP2D6), 1 μmol/L terfenedine (CYP3A4); reaction time, 15 minutes; reaction temperature, 37° C.; enzyme, pooled human hepatic microsome 0.2 mg protein/mL; concentration of a compound of the present invention, 1, 5, 10, 20 μmol/L (four points).
Each five kinds of substrates, human hepatic microsome, or a compound of the present invention in 50 mM Hepes buffer as a reaction mixture was added to a 96-well plate at the composition as described above, NADPH, as a cofactor was added to initiate metabolism reactions as markers and. After the incubation at 37° C. for 15 minutes, a methanol/acetonitrile=1/1 (v/v) solution was added to stop the reaction. After the centrifugation at 3000 rpm for 15 minutes, resorufin (CYP1A2 metabolite) in the supernatant was quantified by a fluorescent multilabel counter and tolbutamide hydroxide (CYP2C9 metabolite), mephenyloin 4′ hydroxide (CYP2C19 metabolite), dextrorphan (CYP2D6 metabolite), and terfenadine alcohol (CYP3A4 metabolite) were quantified by LC/MS/MS.

In data set [2] the target is T1, CRTH2 (Homo sapiens (Human), UniProt Q9Y5Y4). Put plainly: CRTH2 inhibitory activity in CRTH2-expressing cells (PGD2-induced intracellular calcium increase, K562). Type of data set: cell-based. As to conditions: 200 nM PGD2, read-out: IC50, inhibition of intracellular calcium concentration increase induced by PGD2. The method, then:
CRTH2 inhibitory activities of compounds were determined as inhibition activity of intra-cellular calcium concentration increase induced by PGD2 in CRTH2-expressing cells.
CRTH2-expressing K562 cells were suspended at concentration of 2×10^6 cells/ml in buffer (10 mM HEPES, pH 7.4, 0.1% Bovine serum albumin). Cells were incubated with […] (4 μM) for 30 min at room temperature. Cells were washed, resuspended and mixed with various concentration of compounds of the present invention. After 2 min, cells were treated with 200 nM of PGD2. Then intracellular calcium concentration was measured using intracellular ion analyzer (FDSS3000). Inhibition ratio was defined by comparing intracellular calcium concentration increase with and without compound, and IC50 for each compound was calculated from inhibitory curve.
A general note: Calcium flux is commonly read through the fluorescence of an indicator in the cells.

Data set [3] deals with Human DP1 receptor (Homo sapiens (Human), UniProt Q13258). Put plainly: Human DP1 inhibitory activity in DP1-expressing cell (PGD2-induced cAMP). The format is cell-based. The method, then:
Compounds were categorized as AA (cAMP is less than 100 nM) and A (cAMP is more than 100 nM and less than 5000 nM) as shown in Table 99 and 100.

Data set [4] in a line: Solubility test (1% DMSO addition, artificial intestinal juice pH 6.8). Type of data set: physicochemical. As to conditions: fassgf or other biorelevant, kinetic from dmso stock, artificial intestinal juice pH 6.8, 16 hours at 25° C. As to the method: A 10 mmol/L solution of the compound of the present invention is prepared with DMSO, and 6 μL of the compound solution is added to 594 μL of an artificial intestinal juice (water and 118 mL of 0.2 mol/L NaOH reagent are added to 250 mL of 0.2 mol/L potassium dihydrogen phosphate reagent to reach 1000 mL) with a pH of 6.8. The mixture is left standing for 16 hours at 25° C., and the mixture is vacuum-filtered. The filtrate is two-fold diluted with methanol/water=1/1 (V/V), and the compound concentration in the filtrate is measured with HPLC or LC/MS/MS by the absolute calibration method.

Data set [5] deals with T1, CRTH2. Put plainly: CRTH2 inhibitory activity in human eosinophil (PGD2 induced eosinophil shape change). Type of data set: cell-based. As to conditions: human peripheral blood, 40 nM PGD2, forward scatter; read-out: IC50, inhibition of PGD2 induced eosinophil shape change. As to the method: CRTH2 inhibitory activity in human eosinophil was determined as inhibitory activity of PGD2 induced eosinophil shape change.
Human peripheral blood was mixed with compounds of the present invention at 37° C. After 5 min, the blood was treated with 40 nM of PGD2 for 10 min and fixed. The blood was hemolyzed and centrifuged. Blood cells were resuspended in PBS and measured forward scatter (FS) using flow cytometer (FACSAria). Inhibition ratio was defined by comparing FS with and without compound, and IC50 for each compound was calculated from inhibitory curve.

In data set [6] the target is CYP3A4 enzyme expressed in Escherichia coli (Homo sapiens (Human), UniProt P08684). Put plainly: CYP3A4 fluorescent MBI test. Type of data set: in vitro ADME. Particulars: pre-reaction time 0 or 30 minutes, substrate 7-BFC; read-out: CYP3A4 MBI, difference between IC50 values with and without preincubation. The method, then: The CYP3A4 fluorescent MBI test is a test of investigating enhancement of CYP3A4 inhibition of a compound by a metabolism reaction, and the test was performed using, as CYP3A4 enzyme expressed in Escherichia coli and employing, as an index, a reaction in which 7-benzyloxytrifluoromethylcoumarin (7-BFC) is debenzylated by the CYP3A4 enzyme to produce a metabolite, 7-hydroxytrifluoromethylcoumarin (HFC) emitting fluorescent light.
The reaction conditions were as follows: substrate, 5.6 μmol/L 7-BFC; pre-reaction time, 0 or 30 minutes; reaction time, 15 minutes; reaction temperature, 25° C. (room temperature); CYP3A4 content (expressed in Escherichia coli), at pre-reaction […], at reaction […] (at 10-fold dilution); concentration of a compound of the present, 0.625, 1.25, 2.5, 5, 10, 20 μmol/L (six points).
An enzyme in a K-Pi buffer (pH 7.4) and a compound solution of the present invention as a pre-reaction mixture were added to a 96-well plate at the composition of the pre-reaction, a part of it was transferred to another 96-well plate so that it was 1/10 diluted by a substrate in a K-Pi buffer, NADPH as a co-factor was added to initiate a reaction as an index (without preincubation) and, after a predetermined time of a reaction, acetonitrile/0.5 mol/L Tris(trishydroxyaminomethane)=4/1 (V/V) was added to stop the reaction. In addition, NADPH was added to a remaining preincubation solution to initiate a preincubation (with preincubation) and, after a predetermined time of a preincubation, a part was transferred to another plate so that it was 1/10 diluted with a substrate and a K-Pi buffer to initiate a reaction as an index. After a predetermined time of a reaction, acetonitrile/0.5 mol/L Tris(trishydroxyaminomethane)=4/1 (V/V) was added to stop the reaction. For the plate on which each index reaction had been performed, a fluorescent value of 7-HFC which is a metabolite was measured with a fluorescent plate reader. (Ex=420 nm, Em=535 nm).

[7] abbreviates: IC50 of PGD2 (60 nM)-induced cAMP increase, human DP1 receptor expressing Jurkut cell.
Where [8] appears, read: category of cAMP IC50, human DP1 receptor expressing Jurkut cell.

As usually defined, the solubility is how much of the substance goes into solution per volume. Read a high solubility as a readily soluble substance.

T1 sequence (Q9Y5Y4 whole entry): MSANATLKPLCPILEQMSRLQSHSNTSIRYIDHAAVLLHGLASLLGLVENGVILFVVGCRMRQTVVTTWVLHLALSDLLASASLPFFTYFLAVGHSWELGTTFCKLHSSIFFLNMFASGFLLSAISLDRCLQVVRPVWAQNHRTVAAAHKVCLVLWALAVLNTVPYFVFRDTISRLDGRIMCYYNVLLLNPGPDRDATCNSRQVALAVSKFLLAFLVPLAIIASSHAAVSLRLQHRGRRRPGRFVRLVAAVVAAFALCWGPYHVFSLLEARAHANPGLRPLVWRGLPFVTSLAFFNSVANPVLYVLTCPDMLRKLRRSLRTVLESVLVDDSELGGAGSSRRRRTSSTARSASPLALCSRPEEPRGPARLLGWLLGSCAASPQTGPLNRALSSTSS
Chain of CYP2D6 (P10635 whole entry): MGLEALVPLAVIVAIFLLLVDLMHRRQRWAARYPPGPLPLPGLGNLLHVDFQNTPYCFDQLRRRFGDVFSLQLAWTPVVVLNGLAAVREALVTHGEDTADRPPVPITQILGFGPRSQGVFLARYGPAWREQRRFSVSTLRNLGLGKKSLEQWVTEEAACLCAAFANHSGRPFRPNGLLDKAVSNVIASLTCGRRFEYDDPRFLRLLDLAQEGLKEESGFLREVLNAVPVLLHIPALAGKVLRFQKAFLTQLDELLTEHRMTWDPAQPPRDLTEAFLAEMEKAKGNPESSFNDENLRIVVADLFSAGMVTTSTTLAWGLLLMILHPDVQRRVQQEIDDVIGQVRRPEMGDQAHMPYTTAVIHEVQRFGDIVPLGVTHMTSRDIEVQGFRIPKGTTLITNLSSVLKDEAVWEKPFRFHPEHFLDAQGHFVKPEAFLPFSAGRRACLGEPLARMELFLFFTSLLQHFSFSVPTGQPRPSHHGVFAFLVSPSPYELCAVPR
Chain of Human DP1 receptor (Q13258 whole entry): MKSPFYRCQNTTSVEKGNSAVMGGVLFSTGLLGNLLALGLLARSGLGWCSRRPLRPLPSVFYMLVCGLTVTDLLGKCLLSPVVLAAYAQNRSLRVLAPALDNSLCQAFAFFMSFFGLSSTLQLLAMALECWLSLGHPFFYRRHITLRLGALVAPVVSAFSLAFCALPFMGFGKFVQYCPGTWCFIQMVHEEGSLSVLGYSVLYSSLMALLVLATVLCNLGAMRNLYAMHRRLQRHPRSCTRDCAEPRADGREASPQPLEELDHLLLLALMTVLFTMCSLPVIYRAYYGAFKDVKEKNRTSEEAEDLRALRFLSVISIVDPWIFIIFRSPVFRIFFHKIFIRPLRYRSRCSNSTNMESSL
Chain of CYP3A4 enzyme expressed in Escherichia coli (P08684 whole entry): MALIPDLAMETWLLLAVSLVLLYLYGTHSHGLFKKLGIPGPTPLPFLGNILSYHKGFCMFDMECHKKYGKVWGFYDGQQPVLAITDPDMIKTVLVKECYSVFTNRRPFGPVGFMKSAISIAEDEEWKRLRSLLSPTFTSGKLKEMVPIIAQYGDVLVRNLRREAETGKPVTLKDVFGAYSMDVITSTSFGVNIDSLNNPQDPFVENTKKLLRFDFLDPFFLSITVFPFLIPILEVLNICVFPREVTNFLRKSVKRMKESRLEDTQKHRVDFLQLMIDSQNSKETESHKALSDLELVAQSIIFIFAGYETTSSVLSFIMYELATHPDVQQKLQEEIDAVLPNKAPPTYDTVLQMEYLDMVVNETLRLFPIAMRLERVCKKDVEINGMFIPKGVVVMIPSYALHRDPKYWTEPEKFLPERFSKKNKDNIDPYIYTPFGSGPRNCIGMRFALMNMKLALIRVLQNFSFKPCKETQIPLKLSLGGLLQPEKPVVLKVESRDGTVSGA

On to `CC(C)Oc1ccc(S(=O)(=O)N2C[C@H](n3nc(CC(=O)O)c4ccc(F)cc43)C[C@H]2C#N)cc1` [Compound I-7], for which the IC50 in data set [1] is more than 20000 nM; in data set [2], 33 nM; in data set [3] (setting [7]), 23 nM; in data set [3] (setting [8]) it was less than 100 nM; in data set [5] it was 34 nM. In data set [4], this compound registered a solubility at 16 h of more than 50 µM. Moreover, the difference in IC50 with vs without preincubation in data set [6] was not above 3000 nM.
Take `CC(C)Oc1ccc(S(=O)(=O)N2C[C@@H](C)[C@@H](n3nc(CC(=O)O)c4ccc(F)cc43)C2)cc1` [Compound I-37]: the IC50 in data set [1] was more than 20000 nM; in data set [2] it was 50 nM; in data set [3] (setting [7]) it was 10 nM; in data set [3] (setting [8]), less than 100 nM; in data set [5] it was 15 nM. Besides, in data set [4], the solubility at 16 h is more than 50 µM. Besides, in data set [6], the difference in IC50 with vs without preincubation was not above 3000 nM.
As for `CC(C)Oc1ccc(S(=O)(=O)N2C[C@@H](C)[C@@H](n3nc(CC(=O)O)c4ccc(F)cc43)C2)c(F)c1` [Compound I-52], the IC50 in data set [1] was more than 20000 nM; in data set [2] it was 140 nM; in data set [3] (setting [8]) it was less than 100 nM. For the same compound, the solubility at 16 h in data set [4] is more than 50 µM. Besides, the difference in IC50 with vs without preincubation in data set [6] is not above 3000 nM.
The corresponding values for `CC(C)Oc1ccc(S(=O)(=O)N2C[C@@H](C)[C@@H](n3nc(CC(=O)O)c4ccc(F)cc43)C2)cn1` [Compound I-57] are more than 20000 nM, 210 nM, less than 100 nM, more than 50 µM and not above 3000 nM.
For `CCOc1ccc(S(=O)(=O)N2C[C@@H](C)[C@@H](n3nc(CC(=O)O)c4ccccc43)C2)cn1` [Compound I-96], the IC50 in data set [1] is more than 20000 nM; in data set [2], 230 nM; in data set [3] (setting [7]) it was 40 nM; in data set [3] (setting [8]) it was less than 100 nM; in data set [5], 270 nM. The solubility at 16 h in data set [4] is more than 50 µM. Also, the difference in IC50 with vs without preincubation in data set [6] is not above 3000 nM.
